As usually defined, the IC50 is the midpoint of a concentration-inhibition curve. Lower therefore signals greater potency.

This is an account of results in ChEMBL document CHEMBL1144117, “Two new cytotoxic carbonimidic dichlorides from the nudibranch Reticulidia fungia” (J Nat Prod, 1999).

In brackets after ≈: the same amount, converted by molar mass.

Test [1] deals with KB. As to the kind of experiment: Cytotoxicity against human KB cells after 72 hrs by MTT assay. The format is functional, cell-based.
Test [2] deals with L1210. The experiment in a line: Cytotoxicity against mouse L1210 cells after 72 hrs by MTT assay. Format: functional, cell-based. The following applies: L1210, 72 h.

`CC1(C)[C@@H](Cl)[C@H](O)C[C@]2(C)C=C(/C=C/N=C(Cl)Cl)CC[C@@H]12` [RETICULIDIN A]: the IC50 in test [1] was found to be 0.41 µg/mL (≈ 1.17 µM); in test [2] it was 0.59 µg/mL (≈ 1.68 µM).
Taken in the same sequence, the figures for `CC1(C)[C@@H](Cl)[C@@H](O)C[C@]2(C)CC(/C=C/N=C(Cl)Cl)=CC[C@@H]12` [RETICULIDIN B] were 0.42 µg/mL (≈ 1.2 µM) and 0.11 µg/mL (≈ 0.314 µM).
